# Source: patent US8916376B2, “Metal-binding peptides” (priority 2007, dated 2014)
# Columns and labels:
# [1] = tested on: E. coli BLR(DE3) cells; test: Dependence of growth under toxic agent on mini-gene expression (OD600, with and without IPTG); type: cell-based; conditions: for effect of IPTG-induced mini-gene expression on growth (OD600): resistant clones carrying the mini-gene, 24 hrs cultivation with the corresponding toxic agent, with and without IPTG
# Description: The pCRRL1 library was transformed into E. coli BLR(DE3) cells, which carry a T7 RNA polymerase gene under control of IPTG-regulated lacUV5 promoter. The number of individual clones was estimated to be ˜10^5. The clone library was allowed to grow for 4 hrs in order to obtain several replicates of it, and then split into parts intended for parallel evolution experiments using different toxic agents. Expression of the randomized ORF was induced by IPTG, and the multi-step selection experiment was started by adding appropriate amounts of NiCl2, AgNO3, or K2TeO3 to the cell cultures, as shown in FIG. 2 with the selection of the E. coli clones resistant to NiCl2 (a), AgNO3 (b), and K2TeO3 (c). Large filled circles represent bacterial cultures successfully growing at indicated concentrations of each toxic agent. […] Black arrows point to the most resistant bacterial cultures, from which individual clones have been isolated for further studies of their toxicity tolerance. Grey arrow marks the culture, which was used as a non-adapted control in tests of the bacterial resistance towards nickel, silver, and tellurite. […] A concentration gradient of the toxic agents was chosen to cover a range within which an MIC was expected to be found. […] After that, no further change in toxicity tolerance was detected. […] In addition, a 9-bp deletion was detected in the spacer region between the ORF and the transcription terminator. […]
# The existence of a positive correlation between the level of mini-gene expression and the extent of toxicity tolerance would strongly argue in favor of a role for the mini-gene in the mechanism of stress resistance of the evolved clones. […] Comparison of the bacterial growth parameters measured in the presence and absence of IPTG made it possible to distinguish the specific effect of mini-gene expression on culture survival and propagation from the basal resistance to the hostile environment acquired through adaptive genomic mutations. […]
# [2] = tested on: E. coli BLR(DE3) cells; test: Multi-step selection of E. coli clone library under toxic agents; apparent MIC; type: cell-based; conditions: for concentration above which no bacterial growth was observed: 24 hours selection cycle, FIG. 2
# Description: The pCRRL1 library was transformed into E. coli BLR(DE3) cells, which carry a T7 RNA polymerase gene under control of IPTG-regulated lacUV5 promoter. The number of individual clones was estimated to be ˜10^5. The clone library was allowed to grow for 4 hrs in order to obtain several replicates of it, and then split into parts intended for parallel evolution experiments using different toxic agents. Expression of the randomized ORF was induced by IPTG, and the multi-step selection experiment was started by adding appropriate amounts of NiCl2, AgNO3, or K2TeO3 to the cell cultures, as shown in FIG. 2 with the selection of the E. coli clones resistant to NiCl2 (a), AgNO3 (b), and K2TeO3 (c). Large filled circles represent bacterial cultures successfully growing at indicated concentrations of each toxic agent. […] Black arrows point to the most resistant bacterial cultures, from which individual clones have been isolated for further studies of their toxicity tolerance. Grey arrow marks the culture, which was used as a non-adapted control in tests of the bacterial resistance towards nickel, silver, and tellurite. […] A concentration gradient of the toxic agents was chosen to cover a range within which an MIC was expected to be found. Thus, at every step the selective pressure was adjusted depending on the achieved level of the toxicity tolerance to keep the evolving bacterial populations under subinhibitory conditions. Substantial increase in bacterial resistance to Ni^2+, Ag^+, and TeO3^2− was observed during four, five, and seven consecutive selection cycles, respectively. After that, no further change in toxicity tolerance was detected. During the selection procedure, the apparent MIC values increased from 4 to 10 mM NiCl2, from 0.03 to 0.90 mM AgNO3, and from 0.7 to 20 μM K2TeO3. Eight clones were isolated from each of the three evolved resistant populations by plating. These were tested for the dependence of growth on mini-gene expression by measuring OD600 after 24 hrs of cultivation in the presence of corresponding toxic agent, with and without IPTG. […] All eight Ni^2+-resistant clones harbored the same plasmid (designated as pCRRL1-N94-01) with a mini-gene variant coding for the peptide […] (SEQ ID NO 1), a structural model of which is shown in FIG. 2a. In addition, a 9-bp deletion was detected in the spacer region between the ORF and the transcription terminator. However, since no important element of the mini-gene operon was located there, the deletion was unlikely to affect the peptide expression. […] All TeO3^2−-resistant clones carried a version of plasmid pCRRL1-T507-01 that has a 225-bp deletion of the whole mini-gene transcriptional unit together with adjacent downstream sequence. This deletion obviously abolishes T7 RNA polymerase activity on the plasmid, making it irresponsive to IPTG induction.
# [3] = E. coli BLR(DE3) pCRRL1 library, start of the selection procedure
# [4] = evolved resistant population, end of the selection procedure
Molecule,effect of IPTG-induced mini-gene expression on growth (OD600) [1],concentration above which no bacterial growth was observed [2],"apparent MIC [2, 3] [µM]","apparent MIC [2, 4] [µM]","concentration at which culture was able to grow ([1]; non-adapted control culture, insensitive to IPTG)"
"MSHATATPASRRRLPLRS [SEQ ID NO 2, 18-mer peptide encoded by the mini-gene of plasmid pCRRL1-A226-01 in Ag+-resistant E. coli clones]",not affected by IPTG,,,,
O=[Te]([O-])[O-].[K+].[K+] [K2TeO3],,above 18 mM,0.7,20,
"MSHAYFVCNRCDSSNHSAHE [SEQ ID NO 1, 20-mer peptide encoded by the mini-gene of plasmid pCRRL1-N94-01 in Ni2+-resistant E. coli clones]",Significant IPTG-induced growth improvement,,,,
[Cl][Ni][Cl] [NiCl2],,,4000,10000,below 4 mM
O=[N+]([O-])[O-].[Ag+] [AgNO3],,above 0.9 mM,30,900,
